Measurements from ChEMBL document CHEMBL1201862, “PubChem BioAssay data set” (2004).
The source made the active and inactive calls. Peptide text beside a SMILES is read from it. * marks the point of attachment. Cbz = O=C(OCc1ccccc1)*

Target: T1, Protein RecA (Mycobacterium tuberculosis, UniProt P9WHJ3)
T1 sequence (P9WHJ3 whole entry): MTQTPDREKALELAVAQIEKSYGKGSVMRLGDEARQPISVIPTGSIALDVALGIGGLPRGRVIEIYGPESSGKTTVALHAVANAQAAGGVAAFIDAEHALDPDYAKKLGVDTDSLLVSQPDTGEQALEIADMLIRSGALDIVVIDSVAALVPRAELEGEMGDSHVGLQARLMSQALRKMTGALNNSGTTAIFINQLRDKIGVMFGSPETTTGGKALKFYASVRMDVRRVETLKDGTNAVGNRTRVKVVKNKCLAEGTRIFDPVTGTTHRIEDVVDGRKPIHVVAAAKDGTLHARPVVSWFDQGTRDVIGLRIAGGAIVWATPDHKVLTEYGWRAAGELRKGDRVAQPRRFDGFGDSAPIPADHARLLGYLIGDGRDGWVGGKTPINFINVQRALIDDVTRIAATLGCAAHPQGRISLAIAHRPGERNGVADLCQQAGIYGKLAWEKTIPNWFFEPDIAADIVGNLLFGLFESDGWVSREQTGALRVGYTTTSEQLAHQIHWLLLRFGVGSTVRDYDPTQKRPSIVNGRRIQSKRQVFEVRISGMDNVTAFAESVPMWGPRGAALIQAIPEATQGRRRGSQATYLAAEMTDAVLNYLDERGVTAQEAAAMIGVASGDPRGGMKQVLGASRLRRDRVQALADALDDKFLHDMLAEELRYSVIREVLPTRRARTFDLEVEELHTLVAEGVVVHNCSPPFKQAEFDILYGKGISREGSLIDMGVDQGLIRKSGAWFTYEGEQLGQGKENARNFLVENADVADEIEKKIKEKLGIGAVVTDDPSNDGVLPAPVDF
Assay: Fluorescence Cell-Free Homogeneous Dose Retest to Identify Inhibitors of RecA-Intein Splicing Activity. [Related pubchem assays (depositor defined):AID2097, AID2223, AID489010, AID492950]
Assay type: functional
Details: not given

Row | Compound | EC50
1 | O=C1C(Cl)=C(N2CCOCC2)C(=O)N1c1ccccc1F | 2.47 µM (active)
2 | COc1cc(Cc2nccc3cc(OC)c(OC)cc23)c(S(=O)(=O)O)cc1OC | 85.7 µM (active)
3 | CCOC(=O)C(CC)Sc1ncnc2c1nnn2-c1ccc(F)cc1 (stereo not given) | 26.7 µM (active)
4 | Cc1ccc(NC(=O)C(CC(C)C)NC(N)=O)cc1 (stereo not given) | > 380 µM (inactive)
5 | CC1Nc2ncnc(N3CCc4ccccc4C3)c2N(Cc2ccc(Br)cc2)C1=O (stereo not given) | 23.7 µM (active)
6 | Cc1nc2ccccc2c2c1C(=O)NC2=O | 3.72 µM (active)
7 | CCCCn1[nH]c(-c2ccccc2)cc1=O | 1.05 µM (active)
8 | C/C(=N/NC(=O)Cc1cc(O)[nH]n1)c1ccc([N+](=O)[O-])cc1 | 1.38 µM (active)

Target: Cytochrome P450 2C9 (Homo sapiens, UniProt P11712)
Sequence (P11712 whole entry): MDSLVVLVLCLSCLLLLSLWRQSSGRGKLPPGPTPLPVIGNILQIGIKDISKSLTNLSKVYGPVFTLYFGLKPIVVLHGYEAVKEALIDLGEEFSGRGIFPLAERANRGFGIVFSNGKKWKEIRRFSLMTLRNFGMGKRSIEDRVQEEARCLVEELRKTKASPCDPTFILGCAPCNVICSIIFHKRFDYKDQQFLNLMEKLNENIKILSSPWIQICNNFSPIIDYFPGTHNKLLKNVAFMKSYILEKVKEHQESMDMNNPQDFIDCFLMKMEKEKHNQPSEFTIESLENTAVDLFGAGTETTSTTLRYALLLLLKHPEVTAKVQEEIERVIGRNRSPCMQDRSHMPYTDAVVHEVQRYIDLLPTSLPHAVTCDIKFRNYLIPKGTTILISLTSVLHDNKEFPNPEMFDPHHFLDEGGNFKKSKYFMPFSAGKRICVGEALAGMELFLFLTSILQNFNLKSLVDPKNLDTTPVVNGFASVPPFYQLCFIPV
Details: not given

Row | Compound | AC50
9 | CC[C@]1(c2ncc[nH]2)Cc2ccccc2O1 | 25.1 µM (inconclusive)
10 | COc1ccccc1CNc1nc(-c2c(C)noc2C)nc2ccccc12 | 1 µM (inconclusive)
11 | Cc1ccc(OCC(=O)Nc2ccccc2-c2ccccc2)cc1 | 11.2 µM (inconclusive)
12 | O=C(N/C(=C\c1cccs1)C(=O)N1CCCCCC1)c1ccccc1 | 31.6 µM (inconclusive)
13 | Cc1ccccc1-c1nc(C[S+]([O-])CC(=O)NCCN2CCN(Cc3ccccc3)CC2)c(C)o1 (stereo not given) | 39.8 µM (inconclusive)
14 | CCC1NC(=S)N(C2CCCCC2)C1=O (stereo not given) | 15.8 µM (inconclusive)
15 | Cc1n[nH]c(C)c1S(=O)(=O)N1CCOCC1 | 17.8 µM (inconclusive)
16 | O=C(O)c1nn(-c2ccccc2)ccc1=O | 0.398 µM (inconclusive)
17 | N[C@@H](Cc1cc(-c2ccc(Cl)cc2Cl)cc(CP(=O)(O)O)c1O)C(=O)O | 20 µM (inconclusive)
18 | COc1cccc(-c2cncnc2NCc2ccccc2)c1 | 0.158 µM (inconclusive)

Target: Cytochrome P450 2C19 (Homo sapiens, UniProt P33261)
Sequence (P33261 whole entry): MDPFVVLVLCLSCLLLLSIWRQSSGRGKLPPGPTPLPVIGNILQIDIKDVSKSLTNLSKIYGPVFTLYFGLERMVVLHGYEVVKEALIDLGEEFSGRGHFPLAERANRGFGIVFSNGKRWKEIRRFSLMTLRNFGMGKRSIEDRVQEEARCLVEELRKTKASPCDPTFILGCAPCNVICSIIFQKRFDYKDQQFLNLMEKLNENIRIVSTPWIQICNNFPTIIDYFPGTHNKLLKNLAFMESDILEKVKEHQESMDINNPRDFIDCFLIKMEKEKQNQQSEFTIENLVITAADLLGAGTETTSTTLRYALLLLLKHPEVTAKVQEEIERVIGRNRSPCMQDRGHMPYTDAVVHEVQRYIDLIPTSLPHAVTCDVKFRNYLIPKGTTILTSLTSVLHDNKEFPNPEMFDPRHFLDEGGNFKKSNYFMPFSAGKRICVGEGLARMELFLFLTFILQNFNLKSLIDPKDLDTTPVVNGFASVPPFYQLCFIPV
Assay: Cytochrome panel assay with activity outcomes. Panel member name: p450-cyp2c19 Compounds with AC50 equal or less than 10 uM are considered active
Assay type: functional
Details: read-out: AC50

Row | Compound | AC50
19 | COc1ccccc1CNc1nc(-c2c(C)noc2C)nc2ccccc12 | 1.58 µM (inconclusive)
20 | N=C(N)S[C@H]1c2ccccc2-c2cc([N+](=O)[O-])ccc21 | 0.631 µM (inconclusive)
21 | O=C(N/C(=C\c1cccs1)C(=O)N1CCCCCC1)c1ccccc1 | 5.01 µM (inconclusive)
22 | CCC1NC(=S)N(C2CCCCC2)C1=O (stereo not given) | 5.01 µM (inconclusive)
23 | CCOc1ccc(CCNC(=O)C2CC(=O)N(C3CCCC3)C2)cc1OCC (stereo not given) | 0.0631 µM (inconclusive)
24 | N[C@@H](Cc1cc(-c2ccc(Cl)cc2Cl)cc(CP(=O)(O)O)c1O)C(=O)O | 7.94 µM (inconclusive)

Target: T2, Polyadenylate-binding protein 1 (Homo sapiens, UniProt P11940)
T2 sequence (P11940 whole entry): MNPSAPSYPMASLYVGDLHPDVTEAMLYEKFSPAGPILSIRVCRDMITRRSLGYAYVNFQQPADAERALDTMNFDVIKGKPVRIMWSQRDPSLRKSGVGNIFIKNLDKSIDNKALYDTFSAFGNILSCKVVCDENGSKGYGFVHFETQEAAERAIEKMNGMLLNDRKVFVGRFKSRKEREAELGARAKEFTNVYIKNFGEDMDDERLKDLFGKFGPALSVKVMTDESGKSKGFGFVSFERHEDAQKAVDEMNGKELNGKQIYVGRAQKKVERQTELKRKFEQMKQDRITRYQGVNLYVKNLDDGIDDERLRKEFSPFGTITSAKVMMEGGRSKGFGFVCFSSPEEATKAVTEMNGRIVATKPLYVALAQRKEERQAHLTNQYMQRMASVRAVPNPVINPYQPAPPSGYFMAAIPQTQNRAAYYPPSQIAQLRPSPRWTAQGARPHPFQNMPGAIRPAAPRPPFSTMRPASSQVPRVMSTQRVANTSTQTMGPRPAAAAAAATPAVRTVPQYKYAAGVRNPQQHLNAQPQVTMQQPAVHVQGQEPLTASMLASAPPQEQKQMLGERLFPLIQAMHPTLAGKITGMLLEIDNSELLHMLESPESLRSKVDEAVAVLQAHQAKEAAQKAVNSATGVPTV
Assay: MLLE binding blockers, Cy5 peptide tracer – biochemical, fluorescence polarization, Cy5-PAM2 peptide, secondary, miRNA deadenylation inhibitor project, dose response (AID 602260)
Assay type: functional
Details: read-out: IC50_Mean

Row | Compound | IC50
25 | O=S(=O)(NC(=S)NC1CCCCC1)c1ccccc1 | > 66 µM (inactive)
26 | COc1ccccc1C1CC(c2cccs2)=Nc2ccccc2S1 (stereo not given) | > 66 µM (inactive)
27 | O=C(CN1C(=O)/C(=C/c2ccccc2Cl)SC1=S)NC1CCS(=O)(=O)C1 (stereo not given) | > 66 µM (inactive)
28 | Cc1cc(C)n2nc(SCc3cc(=O)oc4ccc5ccccc5c34)nc2n1 | > 66 µM (inactive)
29 | O=C(NC(=S)Nc1cccc2cccnc12)c1ccccc1 | > 66 µM (inactive)
30 | CCc1noc(C)c1C(=O)N1CCN(S(=O)(=O)c2ccccc2C(F)(F)F)CC1 | > 66 µM (inactive)
31 | O=C(COc1ccc(Br)cc1)NNC(=O)c1ccc(-n2cncn2)c([N+](=O)[O-])c1 | > 66 µM (inactive)
32 | CC(=O)Nc1ccc(SCC(=O)NC(=O)c2ccc(S(=O)(=O)N(C)C)cc2)cc1 | > 66 µM (inactive)
33 | Cc1ccc(S(=O)(=O)CCSc2cccc(C(=O)O)c2)cc1 | > 66 µM (inactive)

Target: Cytochrome P450 2D6 (Homo sapiens, UniProt P10635);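 note: CYP2D6 member of a cytochrome P450 panel assay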
Sequence (P10635 whole entry): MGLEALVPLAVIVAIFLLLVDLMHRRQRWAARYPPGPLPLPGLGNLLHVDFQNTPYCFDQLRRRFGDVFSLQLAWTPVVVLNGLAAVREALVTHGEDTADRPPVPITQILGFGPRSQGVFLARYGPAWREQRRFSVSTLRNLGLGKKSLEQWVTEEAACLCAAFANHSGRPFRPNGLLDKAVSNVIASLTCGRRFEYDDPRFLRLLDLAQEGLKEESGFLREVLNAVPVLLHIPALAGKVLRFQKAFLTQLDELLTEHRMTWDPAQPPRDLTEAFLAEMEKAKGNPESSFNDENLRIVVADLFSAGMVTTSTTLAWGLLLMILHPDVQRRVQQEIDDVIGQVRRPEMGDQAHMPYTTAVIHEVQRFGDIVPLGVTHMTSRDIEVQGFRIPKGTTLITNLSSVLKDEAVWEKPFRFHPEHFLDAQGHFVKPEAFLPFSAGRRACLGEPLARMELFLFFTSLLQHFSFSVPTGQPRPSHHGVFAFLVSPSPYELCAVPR
Details: not given

Row | Compound | AC50
34 | CC[C@]1(c2ncc[nH]2)Cc2ccccc2O1 | 10 µM (inconclusive)
35 | COc1ccccc1CNc1nc(-c2c(C)noc2C)nc2ccccc12 | 7.94 µM (inconclusive)
36 | N=C(N)S[C@H]1c2ccccc2-c2cc([N+](=O)[O-])ccc21 | 2.51 µM (inconclusive)
37 | Cc1ccc(Cn2nnc3c(O)nc(C4CCN(C(=O)Cc5cccs5)CC4)nc32)cc1 | 17.8 µM (inconclusive)
38 | CCOc1ccc(CCNC(=O)C2CC(=O)N(C3CCCC3)C2)cc1OCC (stereo not given) | 0.0282 µM (inconclusive)
39 | COc1cccc(-c2cncnc2NCc2ccccc2)c1 | 39.8 µM (inconclusive)

Target: Cytochrome P450 3A4 (Homo sapiens, UniProt P08684);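 note: CYP3A4 tested as one member of a cytochrome P450 panel screen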
Sequence (P08684 whole entry): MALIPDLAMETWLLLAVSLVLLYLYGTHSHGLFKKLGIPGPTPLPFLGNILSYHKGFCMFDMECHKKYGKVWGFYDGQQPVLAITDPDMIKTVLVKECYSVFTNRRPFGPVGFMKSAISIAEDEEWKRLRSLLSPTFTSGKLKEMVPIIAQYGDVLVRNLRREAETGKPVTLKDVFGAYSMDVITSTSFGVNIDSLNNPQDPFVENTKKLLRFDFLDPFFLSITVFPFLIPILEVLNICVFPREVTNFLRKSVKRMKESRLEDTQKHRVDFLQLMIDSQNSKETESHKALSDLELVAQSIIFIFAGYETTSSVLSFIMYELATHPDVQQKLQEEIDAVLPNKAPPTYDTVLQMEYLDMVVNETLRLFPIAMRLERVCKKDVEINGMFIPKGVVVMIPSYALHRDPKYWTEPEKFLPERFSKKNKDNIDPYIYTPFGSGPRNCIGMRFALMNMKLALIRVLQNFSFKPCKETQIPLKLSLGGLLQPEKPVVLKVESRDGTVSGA
Details: not given

Row | Compound | AC50
40 | C=O.C[C@@H]1Cc2ccccc2N1NC(=O)c1ccc(Cl)c([S+](N)[O-])c1 (stereo not given in full) | 5.01 µM (inconclusive)
41 | Cn1cc(-c2nc3cnc(N4CCOCC4)nc3n(CCC#N)c2=O)c2ccccc21 | 15.8 µM (inconclusive)
42 | O=C(CCc1nc(-c2ccccc2)c(-c2ccccc2)o1)OCc1ccc(Cl)cc1 | 35.5 µM (inconclusive)
43 | COc1ccc(-c2nc3cnc(Oc4ccccc4)nc3n(C3CC3)c2=O)cc1 | 15.8 µM (inconclusive)
44 | O=c1cnc2cnc(Oc3cccc(Cl)c3)nc2n1Cc1ccc(F)cc1 | 25.1 µM (inconclusive)
45 | COC(=O)CCC(NC(=O)OCc1ccccc1)C(=O)NC(CC(C)C)C(=O)OC (stereo not given) (Cbz-Glu(OMe)-Leu-OMe; configuration not given here) | 14.1 µM (inconclusive)
46 | CCCN(CCC)C(=O)Cc1c(-c2ccc(Cl)cc2)nc2c(Cl)cc(Cl)cn12 [ALPDEM] | 0.794 µM (inconclusive)

Target: T3, Replicative DNA helicase DnaB (Mycobacterium tuberculosis, UniProt P9WMR3)
T3 sequence (P9WMR3 whole entry): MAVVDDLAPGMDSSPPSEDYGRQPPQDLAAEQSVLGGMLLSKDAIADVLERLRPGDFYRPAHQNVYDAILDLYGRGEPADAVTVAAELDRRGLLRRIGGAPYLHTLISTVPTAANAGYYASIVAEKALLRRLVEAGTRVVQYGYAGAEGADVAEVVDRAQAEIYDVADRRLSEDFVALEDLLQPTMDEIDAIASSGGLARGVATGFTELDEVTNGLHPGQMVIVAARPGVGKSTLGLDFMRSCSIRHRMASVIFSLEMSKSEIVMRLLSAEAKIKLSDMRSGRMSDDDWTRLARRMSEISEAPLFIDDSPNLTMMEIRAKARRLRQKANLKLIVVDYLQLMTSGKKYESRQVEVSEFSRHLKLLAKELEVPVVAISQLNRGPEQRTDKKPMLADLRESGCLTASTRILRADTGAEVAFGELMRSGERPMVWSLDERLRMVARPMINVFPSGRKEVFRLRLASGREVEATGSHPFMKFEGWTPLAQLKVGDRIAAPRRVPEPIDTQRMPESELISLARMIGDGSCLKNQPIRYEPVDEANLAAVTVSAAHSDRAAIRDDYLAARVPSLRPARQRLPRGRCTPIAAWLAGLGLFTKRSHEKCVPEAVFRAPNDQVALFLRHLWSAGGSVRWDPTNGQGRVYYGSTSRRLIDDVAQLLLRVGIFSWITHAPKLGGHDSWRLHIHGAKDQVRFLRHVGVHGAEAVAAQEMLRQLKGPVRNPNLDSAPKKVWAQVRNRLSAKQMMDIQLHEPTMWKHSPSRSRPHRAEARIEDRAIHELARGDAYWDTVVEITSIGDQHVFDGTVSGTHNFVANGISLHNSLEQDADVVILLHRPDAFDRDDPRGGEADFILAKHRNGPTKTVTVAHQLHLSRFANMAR
Assay: DnaB intein splicing inhibitors, dose response, biochemical, cell-free fluorescence (AID 449749)
Assay type: functional
Details: not given

Row | Compound | AC50
47 | O=C1C(Cl)=C(N2CCOCC2)C(=O)N1c1ccccc1F | 10.8 µM (active)
48 | COc1cc(Cc2nccc3cc(OC)c(OC)cc23)c(S(=O)(=O)O)cc1OC | 161 µM (active)
49 | CCOC(=O)C(CC)Sc1ncnc2c1nnn2-c1ccc(F)cc1 (stereo not given) | 0.908 µM (active)
50 | Cc1ccc(NC(=O)C(CC(C)C)NC(N)=O)cc1 (stereo not given) | > 380 µM (inactive)
51 | CC1Nc2ncnc(N3CCc4ccccc4C3)c2N(Cc2ccc(Br)cc2)C1=O (stereo not given) | > 380 µM (inactive)
52 | Cc1nc2ccccc2c2c1C(=O)NC2=O | 76.5 µM (active)
53 | CCCCn1[nH]c(-c2ccccc2)cc1=O | 2.96 µM (active)
54 | C/C(=N/NC(=O)Cc1cc(O)[nH]n1)c1ccc([N+](=O)[O-])cc1 | 2.51 µM (active)

Target: T2, Polyadenylate-binding protein 1
Assay: MLLE domain peptide-binding blockers, IC50 – biochemical, fluorescence polarization, FITC-PAM2 peptide, dose response (AID 602259)
Assay type: functional
Details: read-out: IC50_Mean

Row | Compound | IC50
55 | O=S(=O)(NC(=S)NC1CCCCC1)c1ccccc1 | > 66 µM (inactive)
56 | COc1ccccc1C1CC(c2cccs2)=Nc2ccccc2S1 (stereo not given) | > 66 µM (inactive)
57 | O=C(CN1C(=O)/C(=C/c2ccccc2Cl)SC1=S)NC1CCS(=O)(=O)C1 (stereo not given) | > 66 µM (inactive)
58 | Cc1cc(C)n2nc(SCc3cc(=O)oc4ccc5ccccc5c34)nc2n1 | > 66 µM (inactive)
59 | O=C(NC(=S)Nc1cccc2cccnc12)c1ccccc1 | > 66 µM (inactive)
60 | CCc1noc(C)c1C(=O)N1CCN(S(=O)(=O)c2ccccc2C(F)(F)F)CC1 | > 66 µM (inactive)
61 | O=C(COc1ccc(Br)cc1)NNC(=O)c1ccc(-n2cncn2)c([N+](=O)[O-])c1 | > 66 µM (inactive)
62 | CC(=O)Nc1ccc(SCC(=O)NC(=O)c2ccc(S(=O)(=O)N(C)C)cc2)cc1 | > 66 µM (inactive)
63 | Cc1ccc(S(=O)(=O)CCSc2cccc(C(=O)O)c2)cc1 | > 66 µM (inactive)

Target: T4, Cytochrome P450 1A2 (Homo sapiens, UniProt P05177);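 note: PubChem cytochrome P450 panel assay, CYP1A2 panel member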
T4 sequence (P05177 whole entry): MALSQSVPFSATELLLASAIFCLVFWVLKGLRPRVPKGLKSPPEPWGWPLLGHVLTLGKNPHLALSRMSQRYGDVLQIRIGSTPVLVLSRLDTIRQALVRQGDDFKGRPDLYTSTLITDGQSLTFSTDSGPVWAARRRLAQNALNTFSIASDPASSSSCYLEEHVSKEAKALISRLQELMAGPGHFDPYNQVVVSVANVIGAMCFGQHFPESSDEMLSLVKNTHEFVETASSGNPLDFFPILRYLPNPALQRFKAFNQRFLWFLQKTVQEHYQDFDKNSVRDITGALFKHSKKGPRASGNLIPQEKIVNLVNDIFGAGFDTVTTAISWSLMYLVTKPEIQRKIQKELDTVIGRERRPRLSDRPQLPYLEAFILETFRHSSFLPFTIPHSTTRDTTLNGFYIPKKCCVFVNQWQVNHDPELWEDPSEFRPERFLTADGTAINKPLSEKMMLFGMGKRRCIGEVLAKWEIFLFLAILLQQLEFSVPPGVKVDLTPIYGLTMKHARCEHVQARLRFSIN
Details: not given

Row | Compound | AC50
64 | Cc1ccc(Cn2nnc3c(O)nc(C4CCN(C(=O)Cc5cccs5)CC4)nc32)cc1 | 31.6 µM (inconclusive)
65 | N[C@@H](Cc1cc(-c2ccc(Cl)cc2Cl)cc(CP(=O)(O)O)c1O)C(=O)O | 20 µM (inconclusive)
